According to the supplement of paper PMC10307832:

How the values were obtained:
Assay in all cases: relative viability (nuclei count vs DMSO), 5 days (fraction); higher = more cells survive
[1] = compound: NS(=O)(=O)OC[C@@H]1C[C@@H](n2ccc3c(N[C@H]4CCc5ccccc54)ncnc32)C[C@@H]1O [MLN4924] + Cc1nc(Nc2ncc(C(=O)Nc3c(C)cccc3Cl)s2)cc(N2CCN(CCO)CC2)n1 [Dasatinib] (partner 0.075 µM)
How it was run: (§1)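 After 5 days of treatment, lung cancer cells in 1536-well plates were fixed and stained in a single step (final 0.05% Triton X-100, 1% formaldehyde, 1 ug/ml Hoechst) and their nuclei counted on 4× images. Treatment had been applied by pin tool the day after seeding as one drug alone or as a fixed anchor-drug dose with five library-drug doses (not always all listed) in √10 steps. Relative viability is the nuclei count of treated wells divided by that of vehicle wells, and values are medians of duplicate plates.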

[2] = compound: C1CC(C1)(C(=O)O)C(=O)O.[NH2-].[NH2-].[Pt+2] [Carboplatin] + CS(=O)(=O)CCNCc1ccc(-c2ccc3ncnc(Nc4ccc(OCc5cccc(F)c5)c(Cl)c4)c3c2)o1 [Lapatinib] (partner 2 µM)
How it was run: as §1

[3] = compound: C1CC(C1)(C(=O)O)C(=O)O.[NH2-].[NH2-].[Pt+2] [Carboplatin] + CC1(C)CCC(c2ccc(Cl)cc2)=C(CN2CCN(c3ccc(C(=O)NS(=O)(=O)c4ccc(N[C@H](CCN5CCOCC5)CSc5ccccc5)c(S(=O)(=O)C(F)(F)F)c4)cc3)CC2)C1 [Navitoclax] (partner 0.5 µM)
How it was run: as §1

[4] = compound: CC[C@H](C)N1C=C(C2=C(C=C(C=C21)C3=CN=C(C=C3)N4CCNCC4)C(=O)NCC5=C(C=C(NC5=O)C)C)C [GSK126] + O=C(CCCCCCC(=O)Nc1ccccc1)NO [Vorinostat] (partner 1 µM)
How it was run: as §1

Cell Line	relative viability ([1]; first compound 0.04 µM)	relative viability ([1]; first compound 0.1265 µM)	relative viability ([1]; first compound 0.4 µM)	relative viability ([1]; first compound 1.265 µM)	relative viability ([1]; first compound 4 µM)	relative viability ([2]; first compound 0.08 µM)	relative viability ([2]; first compound 0.253 µM)	relative viability ([2]; first compound 0.8 µM)	relative viability ([2]; first compound 2.53 µM)	relative viability ([2]; first compound 8 µM)	relative viability ([3]; first compound 0.08 µM)	relative viability ([3]; first compound 0.253 µM)	relative viability ([3]; first compound 0.8 µM)	relative viability ([3]; first compound 2.53 µM)	relative viability ([3]; first compound 8 µM)	relative viability ([4]; first compound 0.08 µM)	relative viability ([4]; first compound 0.253 µM)	relative viability ([4]; first compound 0.8 µM)	relative viability ([4]; first compound 2.53 µM)	relative viability ([4]; first compound 8 µM)
LOU-NH91	0.554	0.708	0.778	0.494	0.415	0.84	0.755	0.838	0.819	0.735	0.831	0.642	0.667	0.706	0.624	0.909	0.878	0.781	0.957	0.905
LU99A	0.507	0.485	0.321	0.132	0.16	0.988	1.04	1.01	0.917	0.795	0.842	0.881	0.829	0.774	0.581	0.506	0.484	0.443	0.404	0.561
LXF-289	0.215	0.203	0.251	0.0849	0.0735	0.908	0.936	0.91	0.89	0.891	0.933	0.982	0.932	0.903	0.927	0.8	0.832	0.718	0.787	0.707
NCI-H23	0.722	0.785	0.681	0.335	0.208	1.16	1.25	1	1.02	0.783	0.887	0.9	0.789	0.835	0.588	0.936	0.627	0.639	0.632	0.527
NCI-H322M	0.311	0.655	0.693	0.27	0.289	0.653	0.639	0.55	0.561	0.609	1.26	1.22	1.18	1.13	1.05	0.838	0.884	0.866	0.939	0.939
NCI-H460	0.495	0.657	0.849	0.377	0.0538	0.977	0.87	0.957	0.779	0.336	1.13	1.11	1.03	0.986	0.358	0.89	0.718	0.75	0.699	0.656
NCI-H520	0.216	0.225	0.253	0.171	0.173	1.07	0.985	1.03	0.784	0.59	1.16	1.09	0.961	1.02	0.857	0.761	0.739	0.656	0.745	0.87
NCI-H596	0.623	0.594		0.644	0.744	1.21	1	1.07	0.943	0.886	1	0.952	0.803	0.74	0.695	0.613	0.55	0.746	0.577	0.502
NCI-H647	0.235	0.195	0.113	0.0353	0.0361	1.29	1.1	1.02	0.98	0.862	1.18	1.17	1.08	1.09	0.784	0.724	0.61	0.614	0.592	0.687
NCI-H727	0.374	0.404	0.305	0.293	0.266	0.998	0.782	0.85	0.745	0.448	0.487	0.393	0.426	0.441	0.324	1.45	1.16	1.28	1.1	1.19
NCI-H838	0.268	0.271	0.245	0.199	0.219	1.05	1.1	1.04	0.951	1.04	1.22	1.08	1.16	1.11	1.06	0.747	0.688	0.659	0.638	0.69
NCI-H1355	0.715	0.792	0.767	0.481	0.216	1.12	1.11	1.09	1.06	0.93	1.02	1.01	0.853	0.912	0.921	0.635	0.612	0.667	0.602	0.657
NCI-H1395	0.474	0.493	0.552	0.507	0.331	1.23	1.06	0.984	0.841	0.607	1.16	1.2	0.799	0.845	0.591	0.655	0.731	0.715	0.855	0.743
NCI-H1437	0.276	0.456	0.556	0.235	0.11	0.869	0.832	0.838	0.887	0.641	1.07	1.14	1.09	1.05	0.97	0.902	0.885	0.774	0.77	0.763
NCI-H1650	0.41	0.291	0.267	0.166	0.179	0.944	0.878	0.825	0.795	0.661	1.33	1.11	1.13	1.07	0.726	0.678	0.546	0.605	0.431	0.681
NCI-H1651	0.411	0.473	0.431	0.167	0.116	0.852	0.743	0.965	0.837	0.497	0.973	1.13	0.982	0.904	0.538	0.614	0.548	0.545	0.6	0.55
